Key:
barnyardgrass [1] = test: Test A pre-/postemergence herbicide test; type: in vivo, Echinochloa crus-galli
In short: (§1)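 Scoring was visual, relative to untreated controls, on a 0–100 scale after about 10 greenhouse days. Preemergence treatment used a directed soil spray over seeded loam/sand; postemergence treatment targeted one- to two-leaf plants of 2–10 cm.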

giant foxtail = test: Test A pre-/postemergence herbicide test; type: in vivo, Setaria faberii
In short: as §1

pigweed = test: Test A pre-/postemergence herbicide test; type: in vivo, Amaranthus retroflexus
In short: as §1

galium = test: Test C pre-/postemergence herbicide test; type: in vivo, Galium aparine; conditions: Preemergence
In short: (§2)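 Response scores range from 0, meaning no effect, to 100, meaning complete control, assigned visually by comparison with controls roughly two weeks (13 to 15 days) after spraying. Applications were made preemergence to seeded loam–sand soil and postemergence to 1- to 4-leaf plants.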

crabgrass, large = test: Test C pre-/postemergence herbicide test; type: in vivo, Digitaria sanguinalis
In short: as §2

foxtail, giant = test: Test C pre-/postemergence herbicide test; type: in vivo, Setaria faberii
In short: as §2

lambsquarters = test: Test C pre-/postemergence herbicide test; type: in vivo, Chenopodium album
In short: as §2

morningglory = test: Test C pre-/postemergence herbicide test; type: in vivo, Ipomoea coccinea
In short: as §2

barnyardgrass [2] = test: Test C pre-/postemergence herbicide test; type: in vivo, Echinochloa crus-galli
In short: as §2

waterhemp = test: Test C pre-/postemergence herbicide test; type: in vivo, Amaranthus rudis
In short: as §2

oat, wild = test: Test C pre-/postemergence herbicide test; type: in vivo, Avena fatua; conditions: Postemergence
In short: as §2

velvetleaf = test: Test C pre-/postemergence herbicide test; type: in vivo, Abutilon theophrasti
In short: as §2

[3] = Postemergence, 125 g ai/ha, visual rating on 0 to 100 scale (0 no effect, 100 complete control), approx. 10 days
[4] = Postemergence, 500 g ai/ha, 0 to 100 scale (0 no effect, 100 complete control)
[5] = Preemergence, 125 g ai/ha, 0 to 100 scale where 0 is no effect and 100 is complete control
[6] = Preemergence, 500 g ai/ha, visual rating on 0 to 100 scale (0 no effect, 100 complete control)
[7] = Postemergence, 31 g ai/ha, scale 0 to 100 (0 no effect, 100 complete control)
[8] = Postemergence, 62 g ai/ha, scale 0 (no effect) to 100 (complete control)
[9] = Postemergence, 125 g ai/ha, scale 0 to 100 (0 no effect, 100 complete control)
[10] = Postemergence, 250 g ai/ha, scale 0 to 100 (0 no effect, 100 complete control)
[11] = Preemergence, 31 g ai/ha, scale 0 to 100, 0 is no effect and 100 is complete control
[12] = Preemergence, 62 g ai/ha, scale 0 to 100 (0 no effect, 100 complete control)
[13] = Preemergence, 125 g ai/ha, scale 0 to 100

## Cc1cccc(NC(=O)C2C(=O)NCC2c2cccc(C(F)(F)F)c2)c1 (stereo not drawn) [Compound 317]
Barnyardgrass [1]; [3]
  Plant response rating, Barnyardgrass: 80
Barnyardgrass [1]; [4]
  Plant response rating, Barnyardgrass: 90
Barnyardgrass [1]; [5]
  Plant response rating, Barnyardgrass: 90
Barnyardgrass [1]; [6]
  Barnyardgrass plant response rating: 90
Giant foxtail; [3]
  Plant response rating, Foxtail, Giant: 80
Giant foxtail; [4]
  Plant response rating, Foxtail, Giant: 90
Giant foxtail; [5]
  Plant response rating, Foxtail, Giant: 90
Giant foxtail; [6]
  Foxtail, Giant plant response rating: 90
pigweed; [3]
  Plant response rating, Pigweed: 0
pigweed; [4]
  Plant response rating, Pigweed: 0
pigweed; [5]
  Plant response rating, Pigweed: 0
pigweed; [6]
  Pigweed plant response rating: 0
galium; 31 g ai/ha, scale 0 to 100, 0 is no effect and 100 is complete control
  Galium plant response rating: 0
galium; 62 g ai/ha, scale 0 to 100 (0 no effect, 100 complete control)
  Galium plant response rating: 0
galium; 125 g ai/ha, scale 0 to 100
  Plant response rating, Galium: 0
galium; 250 g ai/ha
  Plant response rating (scale of 0 to 100), Galium: 0
crabgrass, large; [7]
  Plant response rating, Crabgrass, Large: 0
crabgrass, large; [8]
  Plant response rating, Crabgrass, Large: 25
crabgrass, large; [9]
  Plant response rating, Crabgrass, Large: 45
crabgrass, large; [10]
  Plant response rating, Crabgrass, Large: 50
crabgrass, large; [11]
  Crabgrass, Large plant response rating: 95
crabgrass, large; [12]
  Crabgrass, Large plant response rating: 95
crabgrass, large; [13]
  Plant response rating, Crabgrass, Large: 95
crabgrass, large; Preemergence, 250 g ai/ha
  Plant response rating (scale of 0 to 100), Crabgrass, Large: 98
foxtail, giant; [7]
  Plant response rating, Foxtail, Giant: 0
foxtail, giant; [8]
  Plant response rating, Foxtail, Giant: 0
foxtail, giant; [9]
  Plant response rating, Foxtail, Giant: 0
foxtail, giant; [10]
  Plant response rating, Foxtail, Giant: 50
foxtail, giant; [11]
  Foxtail, Giant plant response rating: 80
foxtail, giant; [12]
  Foxtail, Giant plant response rating: 90
foxtail, giant; [13]
  Plant response rating, Foxtail, Giant: 90
foxtail, giant; Preemergence, 250 g ai/ha
  Plant response rating (scale of 0 to 100), Foxtail, Giant: 95
lambsquarters; [7]
  Plant response rating, Lambsquarters: 0
lambsquarters; [8]
  Plant response rating, Lambsquarters: 0
lambsquarters; [9]
  Plant response rating, Lambsquarters: 25
lambsquarters; [10]
  Plant response rating, Lambsquarters: 25
lambsquarters; [11]
  Lambsquarters plant response rating: 0
lambsquarters; [12]
  Lambsquarters plant response rating: 0
lambsquarters; [13]
  Plant response rating, Lambsquarters: 0
lambsquarters; Preemergence, 250 g ai/ha
  Plant response rating (scale of 0 to 100), Lambsquarters: 10
morningglory; [7]
  Plant response rating, Morningglory: 0
morningglory; [8]
  Plant response rating, Morningglory: 0
morningglory; [9]
  Plant response rating, Morningglory: 0
morningglory; [10]
  Plant response rating, Morningglory: 10
morningglory; [11]
  Morningglory plant response rating: 25
morningglory; [12]
  Morningglory plant response rating: 0
morningglory; [13]
  Plant response rating, Morningglory: 0
morningglory; Preemergence, 250 g ai/ha
  Plant response rating (scale of 0 to 100), Morningglory: 0
Barnyardgrass [2]; [7]
  Plant response rating, Barnyardgrass: 0
Barnyardgrass [2]; [8]
  Plant response rating, Barnyardgrass: 0
Barnyardgrass [2]; [9]
  Plant response rating, Barnyardgrass: 25
Barnyardgrass [2]; [10]
  Plant response rating, Barnyardgrass: 70
Barnyardgrass [2]; [11]
  Barnyardgrass plant response rating: 90
Barnyardgrass [2]; [12]
  Barnyardgrass plant response rating: 90
Barnyardgrass [2]; Preemergence, 125 g ai/ha, scale 0 to 100 (0 no effect, 100 complete control)
  Plant response rating, Barnyardgrass: 95
Barnyardgrass [2]; Preemergence, 250 g ai/ha
  Plant response rating (scale of 0 to 100; 0 is no effect, 100 is complete control), Barnyardgrass: 95
waterhemp; [7]
  Plant response rating, Waterhemp: 0
waterhemp; [8]
  Plant response rating, Waterhemp: 0
waterhemp; [9]
  Plant response rating, Waterhemp: 20
waterhemp; [10]
  Plant response rating, Waterhemp: 0
waterhemp; [12]
  Waterhemp plant response rating: 0
waterhemp; [13]
  Plant response rating, Waterhemp: 10
oat, wild; 31 g ai/ha, scale 0 to 100 (0 no effect, 100 complete control)
  Plant response rating, Oat, Wild: 0
oat, wild; 62 g ai/ha, scale 0 (no effect) to 100 (complete control)
  Plant response rating, Oat, Wild: 0
oat, wild; 125 g ai/ha, scale 0 to 100 (0 no effect, 100 complete control)
  Plant response rating, Oat, Wild: 0
oat, wild; 250 g ai/ha, scale 0 to 100 (0 no effect, 100 complete control)
  Plant response rating, Oat, Wild: 0
velvetleaf; [7]
  Plant response rating, Velvetleaf: 0
velvetleaf; [8]
  Plant response rating, Velvetleaf: 0
velvetleaf; [9]
  Plant response rating, Velvetleaf: 0
velvetleaf; [10]
  Plant response rating, Velvetleaf: 0
velvetleaf; [12]
  Velvetleaf plant response rating: 0
velvetleaf; [13]
  Plant response rating, Velvetleaf: 0
